B1: LAADPm: L-AAD derived from P. mirabilis (protein)
chain: MAISRRKFILGGTVVAVAAGAGVLTPMLTREGRFVPGTPRHGFVEGTGGPLPKQDDVVVIGAGILGIMTAINLAERGLSVTIVEKGNIAGEQSSRFYGQAISYKMPDETFLLHHLGKHRWREMNAKVGIDTTYRTQGRVEVPLDEEDLENVRKWIDAKSKDVGSDIPFRTKMIEGAELKQRLRGATTDWKIAGFEEDSGSFDPEVATFVMAEYAKKMGIKIFTNCAARGLETQAGVISDVVTEKGPIKTSRVVVAGGVGSRLFMQNLNVDVPTLPAYQSQQLISAAPNAPGGNVALPGGIFFRDQADGTYATSPRVIVAPVVKESFTYGYKYLPLLALPDFPVHISLNEQLINSFMQSTHWDLNEESPFEKYRDMTALPDLPELNASLEKLKKEFPAFKESTLIDQWSGAMAIAPDENPIISDVKEYPGLVINTATGWGMTESPVSAEITADLLLGKKPVLDAKPFSLYRF
modifications: Synthetic: L-AAD Nucleotide sequence
notes: L-AAD derived from P. mirabilis
B2: LeuDH: leucine dehydrogenase from Pseudomonas aeruginosa, expressed in the engineered strain (protein)
chain: MFDMMDAARLEGLHLAQDPATGLKAIIAIHSTRLGPALGGCRYLPYPNDEAAIGDAIRLAQGMSYKAALAGLEQGGGKAVIIRPPHLDNRGALFEAFGRFIESLGGRYITAVDSGTSSADMDCIAQQTRHVTSTTQAGDPSPHTALGVFAGIRASAQARLGSDDLEGLRVAVQGLGHVGYALAEQLAAVGAELLVCDLDPGRVQLAVEQLGAHPLAPEALLSTPCDILAPCGLGGVLTSQSVSQLRCAAVAGAANNQLERPEVADELEARGILYAPDYVINSGGLIYVALKHRGADPHSITAHLARIPARLTEIYAHAQADHQSPARIADRLAERILYGPQ
modifications: Synthetic: leuDH codon-optimized nucleotide sequence
notes: leucine dehydrogenase from Pseudomonas aeruginosa, expressed in the engineered strain
B3: BrnQ: low affinity BCAA transporter (protein)
chain: MTHQLRSRDIIALGFMTFALFVGAGNIIFPPMVGLQAGEHVWTAAFGFLITAVGLPVLTVVALAKVGGGVDSLSTPIGKVAGVLLATVCYLAVGPLFATPRTATVSFEVGIAPLTGDSALPLFIYSLVYFAIVILVSLYPGKLLDTVGNFLAPLKIIALVILSVAAIIWPAGSISTATEAYQNAAFSNGFVNGYLTMDTLGAMVFGIVIVNAARSRGVTEARLLTRYTVWAGLMAGVGLTLLYLALFRLGSDSASLVDQSANGAAILHAYVQHTFGGGGSFLLAALIFIACLVTAVGLTCACAEFFAQYVPLSYRTLVFILGGFSMVVSNLGLSQLIQISVPVLTAIYPPCIALVVLSFTRSWWHNSSRVIAPPMFISLLFGILDGIKASAFSDILPSWAQRLPLAEQGLAWLMPTVVMVVLAIIWDRAAGRQVTSSAH
modifications: BCAA transporter BrnQ

How the values were obtained:
[1] = system: ATC-inducible Ptet-GFP reporter construct; assay: ATC-inducible Ptet-GFP reporter construct, fluorescence in plate reader (Example 28); assay type: cell-based, E. coli Nissle; settings: two-fold decreased inducer, across a range of concentrations
[2] = system: Pm1: amino acid deaminase gene from P. mirabilis KCTC 2566; settings: relative within the enzyme; cited from earlier work
[3] = system: LAD: L-amino acid deaminase of P. vulgaris; settings: relative within the enzyme; cited from earlier work
[4] = system: Pma: amino acid deaminase gene from P. mirabilis; settings: relative within the enzyme; cited from earlier work
rat = settings: cited from earlier work
LivK = LivK (Escherichia coli, UniProt P04816); settings: cited from earlier work
[5] = system: nitric oxide inducible PnsrR-GFP reporter construct; assay: Nitric oxide inducible PnsrR-GFP reporter construct, fluorescence in plate reader (Example 28); assay type: cell-based, E. coli Nissle; settings: DETA-NO as NO donor, two-fold decreased inducer, across a range of concentrations
leucine = assay: in vitro leucine degradation assay (leucine in culture medium by LC-MS/MS); assay type: cell-based, E. coli Nissle

Chain of LivK (P04816 24-369): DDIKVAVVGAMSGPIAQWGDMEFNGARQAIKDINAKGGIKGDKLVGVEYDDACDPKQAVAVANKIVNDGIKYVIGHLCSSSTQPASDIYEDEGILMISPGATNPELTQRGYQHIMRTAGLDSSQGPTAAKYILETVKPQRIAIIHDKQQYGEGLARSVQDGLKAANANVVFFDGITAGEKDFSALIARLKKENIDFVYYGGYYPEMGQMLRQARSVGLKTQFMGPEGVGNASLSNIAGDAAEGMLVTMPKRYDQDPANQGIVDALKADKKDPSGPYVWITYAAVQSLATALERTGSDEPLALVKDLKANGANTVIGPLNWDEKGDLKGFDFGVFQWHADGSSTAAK

Molecule | amino acid deaminase activity of Pm1, percentage [2] [%] | amino acid deaminase activity of LAD, percentage [3] [%] | amino acid deaminase activity of Pma, percentage [4] [%] | other results
Cc1c2c(c(O)c3c(O)cccc13)C(=O)[C@]1(O)C(=O)C(C(N)=O)=C(O)[C@@H](N(C)C)[C@@H]1C2 [ATC, anhydrotetracycline] |  |  |  | expression of GFP (relative florescence units) [1]: able to induce the expression of GFP
C[C@H](N)C(=O)O [Ala] | 9 | 3.5 | 0.6 | 
N=C(N)NCCC[C@H](N)C(=O)O [Arg] | 51.2 | 27.3 | 28.2 | 
NC(=O)C[C@H](N)C(=O)O [Asn] | 5.2 | 43.6 | 0 | 
N[C@@H](CC(=O)O)C(=O)O [Asp] | 2.6 | 55.4 | 10.9 | 
N[C@@H](CS)C(=O)O [Cys] | 9 |  | 1.9 | 
NC(=O)CC[C@H](N)C(=O)O [Gln] | 5.2 | 1.1 | 1.3 | 
N[C@@H](CCC(=O)O)C(=O)O [Glu] | 35.8 | 1.1 | 0.6 | 
NCC(=O)O [Gly] | 7.6 |  | 1.3 | 
N[C@@H](Cc1c[nH]cn1)C(=O)O [His] | 100 | 79.9 | 0 | 
CC[C@H](C)[C@H](N)C(=O)O [Ilu, isoleucine] | 6.4 |  | 2.6 | 
CC(C)CO [Isobutanol] |  |  |  | Oral NOAEL* (rat) (rat; No-Observed-Adverse-Effect): >1450 mg/kg/day
CC(C)CCO [Isopentanol] |  |  |  | Oral LD50 (rat) (rat): >5000 mg/kg
CC(C)C[C@H](N)C(=O)O [Leu, leucine] | 7.6 | 105 | 41.7 | Kd (LivK): ~1 µM
NCCCC[C@H](N)C(=O)O [Lys] | 7.6 | 3.5 | 1.9 | 
CSCC[C@H](N)C(=O)O [Met] | 2.6 | 100 | 16.7 | 
NCCN(CCN)[N+]([O-])=NO [NO] |  |  |  | expression of GFP (relative florescence units) [5]: able to induce the expression of GFP
N[C@@H](Cc1ccccc1)C(=O)O [Phe] | 46.2 | 37.4 | 100 | 
O=C(O)[C@@H]1CCCN1 [Pro] | 14.2 | 0.7 | 3.2 | 
N[C@@H](CO)C(=O)O [Ser] | 3.8 |  | 1.3 | 
C[C@@H](O)[C@H](N)C(=O)O [Thr] | 12.8 | 1.1 | 0 | 
N[C@@H](Cc1c[nH]c2ccccc12)C(=O)O [Trp] | 10.2 | 41.6 | 3.2 | 
N[C@@H](Cc1ccc(O)cc1)C(=O)O [Tyr] | 9 | 92.8 | 0.6 | 
CC(C)[C@H](N)C(=O)O [Val, valine] | 6.4 |  | 1.3 | 
B1 |  |  |  | leucine degradation rate, comparison of adh2, yqhD, padA and of LAADPv, LAADPm (leucine; SYN469 background, with L-AAD and kivD): good alternative to LAADPV
B2 |  |  |  | rate of leucine degradation (leucine; background strain Nissle ΔleuE, lacZ:tet-livKHMGF): about 160 nmol/10^9 CFU/hour
B3 |  |  |  | rate of leucine degradation with overexpression of BrnQ (leucine; LeuE and ilvC knockout strain with leuDH-kivD-padA on high copy plasmid, tet inducible brnQ on low copy plasmid): greatly improves the rate of leucine degradation
